The record followed here is PubChem BioAssay (NCI).

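The compound was tested at five concentrations on cells cultured in 96-well plates, with a 48-hour exposure period. Definition used: TGI = concentration required for complete inhibition of growth.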 A value given as a limit tells only on which side of the number the result lay.

Test systems include OVCAR-8 ovarian; NCI-H226 lung; SF-268 CNS; MDA-MB-435; RPMI-8226 leukemia; EKVX NSCLC; PC-3 prostate; UACC-257 melanoma; CCRF-CEM leukemia; LOX IMVI melanoma.
Experiment in all cases: growth of human tumour cells (NCI), 48 h

For the molecule `CCOC(=O)CN1C(=O)c2c(c(C)n(-c3ccccc3)c2C)C1=O`, the TGI with OVCAR-8 ovarian, in the test on NCI-H226 lung, in the test on SF-268 CNS, in the test on MDA-MB-435, with RPMI-8226 leukemia and in the test on EKVX NSCLC was more than 100 µM throughout. Further, the TGI in the test on PC-3 prostate, in the test with UACC-257 melanoma and with CCRF-CEM leukemia was more than 100 µM each time.
As for `O=C(O)c1cc2ccccc2c(N=Nc2ccccc2)c1O`, the TGI in the test with OVCAR-8 ovarian is more than 100 µM; with SF-268 CNS it was more than 100 µM; in the test with MDA-MB-435, 35.5 µM; with RPMI-8226 leukemia it was more than 100 µM; in the test with EKVX NSCLC, 96.6 µM; with PC-3 prostate it was 60.1 µM. The figures for the TGI in the test on UACC-257 melanoma and in the test with CCRF-CEM leukemia were 30.5 µM and more than 100 µM, respectively.
`C/C=C/[C@H]1O[C@@](O)([C@@H](C)[C@H](O)[C@H](C)[C@H]2OC(=O)/C(OC)=C/C(C)=C/[C@@H](C)[C@@H](O)[C@@H](CC)[C@@H](O)[C@H](C)C/C(C)=C/C=C/[C@@H]2OC)C[C@H](OC2CC(O)C(O)C(C)O2)[C@@H]1C` (stereo partly drawn): the TGI in the test on OVCAR-8 ovarian is 12 µM; in the test with NCI-H226 lung it was 11.7 µM; in the test with SF-268 CNS, 25.6 µM; in the test on MDA-MB-435, 8.87 µM; with RPMI-8226 leukemia, less than 0.0075 µM; in the test on EKVX NSCLC it was 11.8 µM. In addition, the TGI was 9.48 µM in the test on PC-3 prostate, less than 0.0075 µM in the test with UACC-257 melanoma and less than 0.0075 µM in the test on CCRF-CEM leukemia.
In the case of `CC(=O)[C@@H]1[C@@H](OC(=O)CCC(C)COC2OC(CO)C(O)C(O)C2O)C[C@H]2[C@@H]3CC=C4C[C@@H](OC5OC(CO)C(OC6OC(C)C(O)C(O)C6O)C(O)C5OC5OC(C)C(O)C(O)C5O)CC[C@]4(C)[C@H]3CC[C@]12C` (stereo partly drawn), the TGI in the test on LOX IMVI melanoma, with OVCAR-8 ovarian, in the test with SF-268 CNS, in the test on MDA-MB-435, with RPMI-8226 leukemia and with EKVX NSCLC was more than 100 µM throughout. Further, the TGI in the test on PC-3 prostate, in the test with UACC-257 melanoma and with CCRF-CEM leukemia was more than 100 µM throughout.
Regarding `O=C(/C=C1\N=C(c2ccccc2)N(c2nc3ccc(Sc4ccccc4)cc3[nH]2)C1=O)/C=C/c1ccccc1`, the TGI with LOX IMVI melanoma is more than 100 µM; with OVCAR-8 ovarian it was more than 100 µM; in the test on SF-268 CNS it was more than 100 µM; in the test on MDA-MB-435, 33.9 µM; with RPMI-8226 leukemia, 60.9 µM; in the test on EKVX NSCLC it was more than 100 µM. Further, the TGI in the test on PC-3 prostate, in the test with UACC-257 melanoma and with CCRF-CEM leukemia was more than 100 µM in each case.
`COc1cc2c[n+](C)c3c4cc(OC)c(OC)cc4c(OC)cc3c2cc1OC`: the TGI was more than 76.5 µM with LOX IMVI melanoma; 23 µM in the test with OVCAR-8 ovarian; 18.7 µM in the test with SF-268 CNS; more than 60.4 µM in the test on MDA-MB-435; more than 100 µM in the test with RPMI-8226 leukemia; more than 100 µM with EKVX NSCLC. Also, the TGI was 98.9 µM in the test on PC-3 prostate, 18.3 µM with UACC-257 melanoma and more than 100 µM in the test on CCRF-CEM leukemia.
`COc1ccc(C2=CC(c3ccccc3)n3nnnc3N2)cc1` (stereo not drawn): the TGI in the test with LOX IMVI melanoma, with OVCAR-8 ovarian, with NCI-H226 lung, with SF-268 CNS, with MDA-MB-435 and in the test on RPMI-8226 leukemia was more than 100 µM throughout. Besides, the TGI in the test with PC-3 prostate, in the test on UACC-257 melanoma and in the test with CCRF-CEM leukemia was more than 100 µM throughout.
As for `C=CCOC(=O)N1[C@H]2C#C/C=C\C#C[C@]3(O)C(=O)C[C@H](C)[C@]24O[C@]43C2=CC(=O)C=CC21OC` (stereo partly drawn), the TGI with OVCAR-8 ovarian was 47.9 µM; with NCI-H226 lung, more than 100 µM; with SF-268 CNS it was more than 100 µM; in the test with MDA-MB-435, more than 100 µM; in the test with RPMI-8226 leukemia, 81.5 µM; with EKVX NSCLC, more than 100 µM. For the same molecule, the TGI in the test with PC-3 prostate is more than 100 µM; with UACC-257 melanoma, 59 µM; in the test with CCRF-CEM leukemia it was 79.5 µM.
As to `CC(C)(C)c1cc(CC2C(=O)c3ccccc3C2=O)cc(C(C)(C)C)c1O`, the TGI with LOX IMVI melanoma stood at 16.2 µM; in the test with OVCAR-8 ovarian it was 14.7 µM; with SF-268 CNS it was 17.1 µM; in the test on MDA-MB-435 it was 20 µM; in the test with RPMI-8226 leukemia, 3.34 µM; in the test with EKVX NSCLC, 28 µM. Also, the TGI turned out to be 10.3 µM in the test with PC-3 prostate, 15.4 µM in the test with UACC-257 melanoma and 40.7 µM in the test with CCRF-CEM leukemia.
As for `Cc1cc(N(CCC#N)CCC#N)ccc1/C(N=Nc1ccc(Cl)cc1)=N\NC(=O)c1cc(Cl)ccc1O`, the TGI with OVCAR-8 ovarian was more than 100 µM; in the test with NCI-H226 lung, 85.1 µM; with SF-268 CNS, 86.2 µM; in the test with MDA-MB-435, more than 100 µM; with RPMI-8226 leukemia it was more than 100 µM; with EKVX NSCLC, more than 100 µM. For the same molecule, the TGI in the test on PC-3 prostate, in the test with UACC-257 melanoma and with CCRF-CEM leukemia was more than 100 µM each time.
On to `CCCCCCCC1C(C)c2c([nH]c3ccccc23)C2C(=O)N(c3ccc(OC)cc3)C(=O)C21` (stereo not drawn), for which the TGI in the test on OVCAR-8 ovarian is 6.02 µM; in the test on NCI-H226 lung it was more than 8.21 µM; in the test with SF-268 CNS, more than 10 µM; in the test on MDA-MB-435, more than 8.39 µM; in the test on RPMI-8226 leukemia, more than 10 µM; in the test with EKVX NSCLC, more than 10 µM. For the same molecule, the TGI in the test on PC-3 prostate is more than 10 µM; in the test with UACC-257 melanoma, 7.65 µM; in the test with CCRF-CEM leukemia, more than 6.6 µM.
